Like-named read-outs stand apart in the source and are kept apart here.
Assays:
[1] = system: L. mexicana Cas9^ΔNT1+TcrNT2 promastigotes; assay: Alamar blue drug sensitivity assay, L. mexicana Cas9^ΔNT1+TcrNT2 promastigotes; format: cell-based, Leishmania mexicana; details: L. mexicana Cas9^ΔNT1+TcrNT2 promastigotes, 72 h + 48 h resazurin
Text: (§1) We used L. mexicana promastigotes of the Cas9 strain developed by Beneke at al. to generate the ΔNT1 strain, and from there the Cas9^ΔNT1+TcrNT2 (see below); The original Cas9 strain was generously donated by Prof. Eva Gluenz (University of Bern, Switzerland). All strains in standard HOMEM (GIBCO, Life Technologies, Paisley, UK) supplemented with 10% heat-inactivated fetal bovine serum (FBS; PAA Laboratories, Linz, Austria) and 1% of a penicillin–streptomycin solution (10,000 U mL^−1 each; Life Technologies) at 25 °C, as described.
(§2) The Alamar blue assay (resazurin sodium salt) was used to determine the drug sensitivity of the L. mexicana promastigotes in vitro. The assay is based on the reduction of resazurin sodium salt (blue and non-fluorescent) to resorufin (pink color and fluorescent) by live cells. HOMEM medium with 10% FBS (100 μL) was added to all wells of a white 96-well plate apart from the first well. 200 μL of a known concentration of test compounds was diluted in HOMEM medium and placed in the first well. Compounds were tested in one plate and every compound was diluted over two rows (23 concentrations), leaving the last well of every dilution as a negative control having 100 μL HOMEM medium. Next, 100 μL of L. mexicana culture at a density of 2 × 10^6 cells mL^−1 was added into every well in the plate and incubated for 72 h at a temperature of 25 °C after which resazurin sodium salt (Sigma) (20 μL of a solution of 12.5 mg in 100 mL PBS) was added and the plate was incubated under the same conditions for a further 48 h. Fluorescence was measured in a FLUOstar OPTIMA plate reader (BMG Labtech, Germany), at a wavelength of 544 nm for excitation and 620 nm for emission. The EC50 values and fluorescence data were determined and plotted by the GraphPad Prism 8 Software using an equation for a sigmoid curve with variable slope. Pentamidine was used as positive control and every experiment was performed 3–4 times independently.

[2] = system: L. mexicana Cas9^ΔNT1 promastigotes; assay: Alamar blue drug sensitivity assay, L. mexicana Cas9^ΔNT1 promastigotes; format: cell-based, Leishmania mexicana; details: L. mexicana Cas9^ΔNT1 promastigotes, 72 h + 48 h resazurin
Text: as §1, §2

[3] = system: L. mexicana Cas9 promastigotes; assay: Alamar blue drug sensitivity assay, L. mexicana Cas9 promastigotes; format: cell-based, Leishmania mexicana; details: 72 h + 48 h resazurin, at least 3 independent determinations
Text: as §1, §2

[4] = system: T. cruzi epimastigotes (CL Brener strain); assay: In vitro inhibition of proliferation of T. cruzi epimastigotes; format: cell-based, Trypanosoma cruzi; details: cell densities at the 5th day of proliferation, four independent experiments
Protocol: Trypomastigotes were obtained by infecting CHO-K1 cells. CHO-K1 cells were cultivated in RPMI-1640 medium supplemented with 10% heat-inactivated fetal calf serum (FCS), 0.15% (w/v) […], 100 µg mL^−1 penicillin and 130 µg mL^−1 streptomycin and incubated at 37 °C in a humidified atmosphere containing 5% CO2. CHO-K1 cells were initially incubated with metacyclic trypomastigotes obtained by in vitro differentiation of epimastigotes as previously described (multiplicity of infection: 50 parasites per cell) for 4 h. After washing out the non-internalized parasites, the cells were incubated overnight in RPMI medium supplemented with 10% FCS at 37 °C and then maintained at 33 °C in a humidified atmosphere containing 5% CO2 as previously reported. Infected cells were maintained at 33 °C in the presence of 10% FCS. Infected cell-derived trypomastigotes started to burst into the culture medium at the 5th day post-infection. Trypomastigotes collected at day 5 or 6 post infection were used for the viability assays.
The density of exponentially proliferating epimastigotes for each assay was adjusted to 2.0 × 10^6 parasites mL^−1, transferred into 96-well plates (200 μL/well) and incubated with different concentrations of the compounds 5-F-2′-deoxyuridine, 5-F-uracil, 5-F-uridine or benznidazole. A combination of 60 μM rotenone and 0.5 μM antimycin (RA) was used as a positive control for proliferation inhibition (positive control), as previously described. […] The epimastigote proliferation was measured as previously reported, by reading the optical density (OD) at 620 nm every 24 h for 9 days (which collects readings through the exponential and stationary phases). […] The half-maximal inhibitory concentrations (IC50) were determined during the exponential growth phase (fifth day) by adjusting a sigmoidal dose-response function to experimentally obtained data using GraphPad Prism 8. The compounds were assessed in quadruplicate in each experiment, and the results correspond to four independent experiments.

[5] = system: NT1 transport activity; parameters: method as in PMID 28453984; details: NT1 transport activity in L. mexicana; ref [36]; cited from earlier work
[6] = target: TcrNT2 (Trypanosoma cruzi, UniProt Q4DHG0); details: ref Campagnaro et al. [30], cited from earlier work
[7] = system: L. mexicana Cas9^ΔNT1 promastigotes; parameters: method as in de Almeida Fiuza et al. [41]; details: starred values, ref de Almeida Fiuza et al. [41], cited from earlier work; for EC50: L. mexicana Cas9^ΔNT1 promastigotes, read-out: EC50 (µM) AVG ± SEM, L. mexicana Cas9^ΔNT1; for RF vs. Cas9 (resistance factor): EC50 Cas9^ΔNT1 relative to Cas9
[8] = system: L. mexicana Cas9^ΔNT1+TcrNT2 promastigotes; parameters: method as in de Almeida Fiuza et al. [41]; details: starred values, ref de Almeida Fiuza et al. [41], cited from earlier work; for EC50: L. mexicana Cas9^ΔNT1+TcrNT2 promastigotes, read-out: EC50 (µM) AVG ± SEM, L. mexicana Cas9^ΔNT1+TcrNT2; for RF vs. ΔNT1 (resistance factor): Cas9^ΔNT1+TcrNT2 in comparison to Cas9^ΔNT1
[9] = system: L. mexicana Cas9 promastigotes; parameters: method as in de Almeida Fiuza et al. [41]; details: starred values, ref de Almeida Fiuza et al. [41], read-out: EC50 (µM) AVG ± SEM, Cas9; cited from earlier work
[10] = system: intracellular T. cruzi amastigotes; details: intracellular amastigotes; ref [16]; read-out: EC50 against intracellular T. cruzi amastigotes; cited from earlier work
[11] = substrate: Cc1cn([C@H]2C[C@H](O)[C@@H](CO)O2)c(=O)[nH]c1=O; assay: Transport of [^3H]-thymidine by TcrNT2 expressed in L. mexicana Cas9^ΔNT1 (Km, inhibition); format: cell-based, Trypanosoma cruzi; details: other: TcrNT2 in L. mexicana Cas9^ΔNT1, […] [^3H]-thymidine, 5 min, n = 3
Protocol: These values can be used to calculate the Gibbs free energy of interaction ΔG°, but these experiments cannot distinguish between the test compound being transported or merely binding to the transporter and inhibiting the transit of the [^3H]-thymidine.
Transport assays were conducted with radiolabeled nucleosides [methyl-^3H]-thymidine (20 Ci/mmol; PerkinElmer (Waltham, MA, USA)) and [2,8-^3H]-adenosine (40 Ci/mmol; American Radiolabeled Chemicals (ARC, St-Louis, MO, USA)). Cells were harvested from mid-log phase cultures by centrifugation and washed into an assay buffer (AB) as described, at a density of 1 × 10^8 cells mL^−1. Transport assays were then performed exactly as described previously, using an oil-stop protocol. […]
Michaelis-Menten constants (Km) were calculated by plotting transport rates of [^3H]-substrate against the concentration, using the Michaelis-Menten equation V0 = Vmax([substrate]/([substrate] + Km)) and non-linear regression in GraphPad Prism 8. Inhibition constants (Ki) were calculated using the Cheng-Prusoff equation: Ki = IC50/(1 + (L/Km)), where L represents the radiolabel concentration. […]

| Molecule | EC50 [7] | EC50 [8] | EC50 [9] | RF vs. Cas9 (resistance factor) [7] | RF vs. ΔNT1 (resistance factor) [8] | other results |
| --- | --- | --- | --- | --- | --- | --- |
| O=c1[nH]c(=O)n([C@@H]2O[C@H](CO)[C@@H](O)[C@H]2O)cc1F [5-F-uridine] |  |  |  |  |  | EC50 ([1]; read-out: EC50 (µM) AVG ± SEM, L. mexicana Cas9^ΔNT1+TcrNT2): > 500 µM; EC50 ([2]; read-out: EC50 (µM) AVG ± SEM, L. mexicana Cas9^ΔNT1): > 500 µM; EC50 ([3]; read-out: EC50 (µM) AVG ± SEM, Cas9): > 500 µM; IC50 [4]: > 500 µM |
| Nc1ncnc2c1ncn2[C@@H]1O[C@H](CO)[C@@H](O)[C@H]1O [Adenosine] |  |  |  |  |  | Km [5]: 0.81 ± 0.16 µM; Ki ([6]; earlier characterization, TcrNT2 expressed in T. brucei, read-out: Ki on thymidine transport by TcrNT2): 1560 ± 60 µM; ΔG° (Gibbs free energy of interaction) ([6]; from cited Ki): -3.78 kcal/mol |
| Nc1ncnc2c1c(-c1ccc(Cl)c(F)c1)cn2[C@@H]1O[C@H](CO)[C@@H](O)[C@H]1O [FH10714] | > 500 µM | > 500 µM | > 500 µM |  |  |  |
| Nc1ncnc2c1c(-c1ccccc1)cn2[C@@H]1O[C@H](CO)[C@@H](O)[C@H]1O [TH1004] | 138 ± 10 µM | 101 ± 0.5 µM | 37 ± 0.23 µM | 3.7 | 1.37 |  |
| Nc1ncnc2c1c(-c1ccc(Cl)c(Cl)c1)cn2[C@@H]1O[C@H](CO)[C@@H](O)[C@H]1O [FH3147, 7-(3,4-dichlorophenyl)-tubercidin] | > 100 µM | 13.7 ± 1.25 µM | 8.41 ± 1.61 µM | >11.8 |  | EC50 [10]: 0.19 µM |
| Nc1ncnc2c1c(Cl)cn2[C@@H]1O[C@H](CO)[C@@H](O)[C@H]1O [FH3169] | 2 ± 0.19 µM | 0.32 ± 0.05 µM | 0.24 ± 0.055 µM | 8.43 | 6.26 |  |
| Nc1ncnc2c1c(-c1ccc(Cl)cc1)cn2[C@@H]1O[C@H](CO)[C@@H](O)[C@H]1O [TH1012] | 280 ± 18 µM | 96.6 ± 0.3 µM | 52.5 ± 0.3 µM | 5.3 | 2.90 |  |
| O=c1[nH]cc(F)c(=O)[nH]1 [5-F-uracil] |  |  |  |  |  | EC50 (µM) AVG ± SEM, L. mexicana Cas9^ΔNT1+TcrNT2 [1]: poorly active; EC50 (µM) AVG ± SEM, L. mexicana Cas9^ΔNT1 [2]: poorly active; EC50 (µM) AVG ± SEM, Cas9 [3]: poorly active; IC50 [4]: 25.9 ± 0.01 µM |
| TcrNT2 (Trypanosoma cruzi strain CL Brener) (protein) MGLGFEFWGEAYSYAAAIMCGLSMLLPINAIFSAPLYIMNYYQYVMHDPNAVAKHKNFWDNALTYYSMLIMLVALIVEPLTLSEAFRRIPIRLRMLSALSMFWLEIIILMSVPAAGSTEAGAISAIVCASFSSALGKSVFESTAYGLFGVFPSRFNTALMGGVGVAGALASILQLIVKASLPQDYSGIRTQSKIYYGLMAGIHGITFIMVVGLHWVPFAQRYINALSGGTSSPASNNPDQAAESETEAASKANEKSAPKATNGGDDNADSGRLVNTNVIFVLKCVYPMLSACGFNFFITLFLFPTIVVSVDPDDYWYGTVAVCIFNVCDVCGRFSPSLKCLWPPRWVVLVGSFSRVVFVPLLILASYHYIPSHAYNYVMMVIFGLSNGYIGALAITLGPLTRNLETSGQRFVAGTMFGISILIGGTIGSALSILVQTLRG |  |  |  |  |  | Km [11]: 0.263 µM; Km ([11]; […]): 0.26 ± 0.05 µM |
